Data on 14 compounds can be found in patent US20250163104A1, “MACROCYCLIC IMMUNOMODULATORS” (priority 2021, published 2025).

The target of this test is T1, human PD-1 / PD-L1-Ig binding on Jurkat cell line over-expressing human PD-1 (Jurkat-PD-1) (Homo sapiens, UniProt Q15116).
T1 construct: expressed in transfected cells; host or cells: Jurkat
Put plainly: Jurkat-PD-1 Cell Binding High-Content Screening Assay (CBA). The class given is cell-based. To be noted: PE-labeled PD-L1-Ig 20 nM final. Put shortly: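 Jurkat-hPD-1 cells in DMEM with 10% fetal calf serum receive test compound and are held at 37° C for 2 h. PE-labeled PD-L1-Ig is added at 20 nM final and left for 1 hour. Cells are then fixed and Hoechst-stained, and binding is measured by imaging.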

Setting [1] is: Jurkat-PD-1 cells, read-out: Jurkat HPD1_PDL1 IC50.

Like-named read-outs stand apart in the source and are kept apart here. *1 amine or outer side, *2 acyl side, *3 side chain or, on linkers, in order; H or OH if unused. Where a SMILES comes first, the peptide text is derived from it. Bridges are numbered along the chain shown (N, C = ends). [ ]: non-standard residue; d: D form. The star is where a group is joined. ξ: configuration not given here. Phe(3-CF3) = N[C@@H](Cc1cccc(C(F)(F)F)c1)C(=O)O; Ala(morpholin-4-yl) = N[C@@H](CN1CCOCC1)C(=O)O; Phe(4-COOH) = N[C@@H](Cc1ccc(C(=O)O)cc1)C(=O)O; Tyr(Ph) = N[C@@H](Cc1ccc(Oc2ccccc2)cc1)C(=O)O; X5 = O=C([C@H](Cc1ccc2ncccc2c1)N[*:1])[*:2]; Bip = N[C@@H](Cc1ccc(-c2ccccc2)cc1)C(=O)O; Phe(3-CN) = N#Cc1cccc(C[C@H](N)C(=O)O)c1; Phe(3-Me) = Cc1cccc(C[C@H](N)C(=O)O)c1; γGlu = O=C(O)[C@H](CCC(=O)[*:2])N[*:1]; Val(3-OH) = CC(C)(O)[C@H](N)C(=O)O; Benzoyl(4-F) = O=C(c1ccc(F)cc1)*; 4Pal = N[C@@H](Cc1ccncc1)C(=O)O; Cha = N[C@@H](CC1CCCCC1)C(=O)O; Cit = NC(=O)NCCC[C@H](N)C(=O)O; Ile(3ξ) = CCC(C)[C@H](N)C(=O)O; Thr(3ξ) = CC(O)[C@H](N)C(=O)O; Carboxymethyl = O=C(O)C*; Nle = CCCC[C@H](N)C(=O)O; Orn = NCCC[C@H](N)C(=O)O; Pra = C#CC[C@H](N)C(=O)O; Dab = NCC[C@H](N)C(=O)O; Dap = NC[C@H](N)C(=O)O

T1 sequence (Q15116 25-288): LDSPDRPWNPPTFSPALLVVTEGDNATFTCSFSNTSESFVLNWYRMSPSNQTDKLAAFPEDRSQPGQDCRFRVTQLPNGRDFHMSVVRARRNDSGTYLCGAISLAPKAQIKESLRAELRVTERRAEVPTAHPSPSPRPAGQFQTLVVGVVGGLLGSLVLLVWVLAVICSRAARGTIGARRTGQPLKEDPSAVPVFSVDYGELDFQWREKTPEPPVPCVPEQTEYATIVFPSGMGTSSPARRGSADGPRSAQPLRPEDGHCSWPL

Consider `CCCC[C@@H]1NC(=O)[C@H](Cc2c[nH]c3ccccc23)NC(=O)[C@H](CC(=O)O)NC(=O)[C@H](Cc2ccc(OCC(=O)O)cc2)NC(=O)[C@H](C(C)O)NC(=O)CSC[C@@H](C(=O)N[C@@H](CC(N)=O)C(=O)O)NC(=O)[C@H](CO)NC(=O)[C@H](C(C)C)NC(=O)[C@H](CC(C)C)NC(=O)[C@H](CCN)NC(=O)[C@@H](CC(C)C)NC(=O)[C@H](CCCN)NC(=O)[C@H](C(C)CC)NC(=O)[C@H](Cc2ccc(-c3ccccc3)cc2)NC1=O` (stereo partly drawn) [Compound 2571] ({CH2CO}-[Thr(3ξ)]Y(Carboxymethyl)DW[Nle][Bip][Ile(3ξ)][Orn][dL][Dab]LVSCN-OH; thioether N-14), for which, under setting [1], the half-inhibitory concentration (IC50) – broadly, the concentration at which inhibition is half-maximal – worked out at 26.1 nM.

With `Cc1cccc(C[C@@H]2NC(=O)[C@H](CC(=O)O)NC(=O)[C@H](Cc3ccncc3)NC(=O)[C@H](CN)NC(=O)CSC[C@@H](C(=O)NCC(N)=O)NC(=O)[C@H](CO)NC(=O)[C@H](C(C)C)NC(=O)[C@H](CC(C)C)NC(=O)[C@H](CCN)NC(=O)[C@@H](CC(C)C)NC(=O)[C@H](CCCN)NC(=O)[C@H](C(C)C)NC(=O)[C@H](Cc3ccc(-c4ccccc4)cc3)NC(=O)[C@H](CC(C)C)NC2=O)c1` [Compound 1261] ({CH2CO}-[Dap][4Pal]D[Phe(3-Me)]L[Bip]V[Orn][dL][Dab]LVSCG-NH2; thioether N-14), the IC50 under setting [1] is 13.1 nM.

Turning to `CC(C)C[C@H]1NC(=O)[C@H](CCCN)NC(=O)[C@H](CCCNC(N)=O)NC(=O)[C@H](Cc2ccc(-c3ccccc3)cc2)NC(=O)[C@H](C(C)C)NC(=O)[C@H](Cc2c[nH]c3ccccc23)NC(=O)[C@H](CC(=O)O)NC(=O)[C@H](Cc2cccc(C#N)c2)NC(=O)[C@H](CN)NC(=O)CSC[C@@H](C(=O)N[C@@H](C)C(N)=O)NC(=O)[C@H]([C@@H](C)O)NC(=O)[C@H](C(C)C)NC(=O)[C@H](CC2CCCCC2)NC(=O)[C@H](CCN)NC1=O` [Compound 2093] ({CH2CO}-[Dap][Phe(3-CN)]DWV[Bip][Cit][Orn][dL][Dab][Cha]VTCA-NH2; thioether N-14), the concentration for half-maximal inhibition (IC50) under setting [1] is 12 nM.

`CC(C)C[C@H]1NC(=O)[C@H](CCCN)NC(=O)[C@H](CCCNC(N)=O)NC(=O)[C@H](Cc2ccc(-c3ccccc3)cc2)NC(=O)[C@H](C(C)C)NC(=O)[C@H](Cc2c[nH]c3ccccc23)NC(=O)[C@H](CC(=O)O)NC(=O)[C@H](Cc2ccc(C(=O)O)cc2)NC(=O)[C@H](Cc2ccc(OCC(=O)O)cc2)NC(=O)CSC[C@@H](C(=O)N[C@@H](C)C(N)=O)NC(=O)[C@H]([C@@H](C)O)NC(=O)[C@H](C(C)C)NC(=O)[C@H](Cc2ccccc2)NC(=O)[C@H](CCN)NC1=O` [Compound 1664] ({CH2CO}-Y(Carboxymethyl)[Phe(4-COOH)]DWV[Bip][Cit][Orn][dL][Dab]FVTCA-NH2; thioether N-14): the concentration for half-maximal inhibition (IC50) (Jurkat HPD1_PDL1 IC50, Jurkat-PD-1 cells) is 36.3 nM.

`CC(C)C[C@H]1NC(=O)[C@H](CCCN)NC(=O)[C@H](CCC(=O)O)NC(=O)[C@H](Cc2ccc(-c3ccccc3)cc2)NC(=O)[C@H](C(C)C)NC(=O)[C@H](Cc2c[nH]c3ccccc23)NC(=O)[C@H](CC(=O)O)NC(=O)[C@H](Cc2ccc3ncccc3c2)NC(=O)[C@H](CC(N)=O)NC(=O)CSC[C@@H](C(=O)N[C@@H](C)C(N)=O)NC(=O)[C@H]([C@@H](C)O)NC(=O)[C@H](C(C)C)NC(=O)[C@H](CC2CCCCC2)NC(=O)[C@H](CCN)NC1=O` [Compound 2175] ({CH2CO}-N[X5]DWV[Bip]E[Orn][dL][Dab][Cha]VTCA-NH2; thioether N-14): the IC50 under setting [1] was 69.4 nM.

As for `Cc1cccc(C[C@@H]2NC(=O)[C@H](CC(=O)O)NC(=O)[C@H](Cc3ccc(OCC(=O)O)cc3)NC(=O)[C@H](CCCNC(=N)N)NC(=O)CSC[C@@H](C(N)=O)NC(=O)[C@H]([C@@H](C)O)NC(=O)[C@H](C(C)C)NC(=O)[C@H](CC3CCCCC3)NC(=O)[C@H](CCN)NC(=O)[C@@H](CC(C)C)NC(=O)[C@H](CCCNC(=O)c3ccc(F)cc3)NC(=O)[C@H](Cc3ccc(OCC(=O)O)cc3)NC(=O)[C@H](Cc3ccc(-c4ccccc4)cc3)NC(=O)[C@H](Cc3ccc(O)cc3)NC2=O)c1` [Compound 2050] ({CH2CO}-RY(Carboxymethyl)D[Phe(3-Me)]Y[Bip]Y(Carboxymethyl)[Orn](Benzoyl(4-F))[dL][Dab][Cha]VTC-NH2; thioether N-14), the IC50 under setting [1] came out at 121 nM.

In the case of `Cc1cccc(C[C@@H]2NC(=O)[C@H](CC(=O)O)NC(=O)[C@H](Cc3ccc(OCC(=O)O)cc3)NC(=O)[C@H](CN)NC(=O)CSC[C@@H](C(=O)N[C@@H](C)C(=O)O)NC(=O)[C@H]([C@@H](C)O)NC(=O)[C@H](C(C)C)NC(=O)[C@H](CC3CCCCC3)NC(=O)[C@H](CCN)NC(=O)[C@@H](CC(C)C)NC(=O)[C@H](CCCN)NC(=O)[C@H](CCCNC(N)=O)NC(=O)[C@H](Cc3ccc(-c4ccccc4)cc3)NC(=O)[C@H](C(C)C)NC2=O)c1` [Compound 1300], the 50% inhibitory concentration (IC50) under setting [1] was 5 nM.

For the compound `C#CC[C@H](NC(=O)[C@H](CCN)NC(=O)[C@@H]1CSCC(=O)N[C@@H](Cc2ccncc2)C(=O)N[C@@H](Cc2ccc(C(=O)O)cc2)C(=O)N[C@@H](CC(=O)O)C(=O)N[C@@H](Cc2cccc(C)c2)C(=O)N[C@@H](Cc2ccc(OCC(=O)O)cc2)C(=O)N[C@@H](Cc2ccc(-c3ccccc3)cc2)C(=O)N[C@@H](Cc2ccc(OCC(=O)O)cc2)C(=O)N[C@@H](CCCN)C(=O)N[C@H](CC(C)C)C(=O)N[C@@H](CCN)C(=O)N[C@@H](CC2CCCCC2)C(=O)N[C@@H](C(C)(C)O)C(=O)N[C@@H](CO)C(=O)N1)C(=O)O` [Compound 2324] ({CH2CO}-[4Pal][Phe(4-COOH)]D[Phe(3-Me)]Y(Carboxymethyl)[Bip]Y(Carboxymethyl)[Orn][dL][Dab][Cha][Val(3-OH)]SC[Dab][Pra]-OH; thioether N-14), under setting [1], the IC50 is 247 nM.

Turning to `CC(C)C[C@H]1NC(=O)[C@H](CCCN)NC(=O)[C@H](C(C)C)NC(=O)[C@H](Cc2ccc(-c3ccccc3)cc2)NC(=O)[C@H](C(C)C)NC(=O)[C@H](Cc2c[nH]c3ccccc23)NC(=O)[C@H](CC(=O)O)NC(=O)[C@H](Cc2ccc(C(=O)O)cc2)NC(=O)[C@H](Cc2ccc(OCC(=O)O)cc2)NC(=O)CSC[C@@H](C(=O)N[C@@H](C)C(N)=O)NC(=O)[C@H](Cc2cnc[nH]2)NC(=O)[C@H](C(C)C)NC(=O)[C@H](CC2CCCCC2)NC(=O)[C@H](CCN)NC1=O` [Compound 1751] ({CH2CO}-Y(Carboxymethyl)[Phe(4-COOH)]DWV[Bip]V[Orn][dL][Dab][Cha]VHCA-NH2; thioether N-14), the 50% inhibitory concentration (IC50) under setting [1] is 7.8 nM.

Regarding `CC(C)[C@@H]1NC(=O)[C@H](Cc2c[nH]c3ccccc23)NC(=O)[C@H](CC(=O)O)NC(=O)[C@H](Cc2ccc(C(=O)O)cc2)NC(=O)[C@H](Cc2ccncc2)NC(=O)CSC[C@@H](C(=O)N[C@@H](C)C(N)=O)NC(=O)[C@H]([C@@H](C)O)NC(=O)[C@H](C(C)C)NC(=O)[C@H](CC2CCCCC2)NC(=O)[C@H](CCN)NC(=O)[C@@H](Cc2ccccc2)NC(=O)[C@H](CCCN)NC(=O)[C@H](CCC(=O)O)NC(=O)[C@H](Cc2ccc(-c3ccccc3)cc2)NC1=O` [Compound 1432] ({CH2CO}-[4Pal][Phe(4-COOH)]DWV[Bip]E[Orn][dF][Dab][Cha]VTCA-NH2; thioether N-14), the 50% inhibitory concentration (IC50) under setting [1] is 17.4 nM.

Take `CC(C)C[C@H]1NC(=O)[C@H](CCCN)NC(=O)[C@H](Cc2ccc(C(=O)O)cc2)NC(=O)[C@H](Cc2ccc(-c3ccccc3)cc2)NC(=O)[C@H](Cc2ccc(Oc3ccccc3)cc2)NC(=O)[C@H](Cc2cccc(C(F)(F)F)c2)NC(=O)[C@H](CC(=O)O)NC(=O)[C@H](Cc2ccc(C(=O)O)cc2)NC(=O)[C@H](CN2CCOCC2)NC(=O)CSC[C@@H](C(=O)N[C@@H](CCN)C(N)=O)NC(=O)[C@H](CCC(=O)O)NC(=O)[C@H](C(C)C)NC(=O)[C@H](CC2CCCCC2)NC(=O)[C@H](CCN)NC1=O` [Example 2730] ({CH2CO}-[Ala(morpholin-4-yl)][Phe(4-COOH)]D[Phe(3-CF3)][Tyr(Ph)][Bip][Phe(4-COOH)][Orn][dL][Dab][Cha]VEC[Dab]-NH2; thioether N-14): under setting [1], the concentration for half-maximal inhibition (IC50) was 94 nM.

On to `C#CC[C@H](NC(=O)CC[C@H](NC(=O)[C@H](CCN)NC(=O)[C@@H]1CSCC(=O)N[C@@H](CCN)C(=O)N[C@@H](Cc2ccc(OCC(=O)O)cc2)C(=O)N[C@@H](CC(=O)O)C(=O)N[C@@H](Cc2cccc(C)c2)C(=O)N[C@@H](Cc2ccc(C(=O)O)cc2)C(=O)N[C@@H](Cc2ccc(-c3ccccc3)cc2)C(=O)N[C@@H](Cc2ccc(C(=O)O)cc2)C(=O)N[C@@H](CCCN)C(=O)N[C@H](CC(C)C)C(=O)N[C@@H](Cc2cnc[nH]2)C(=O)N[C@@H](CC2CCCCC2)C(=O)N[C@@H](C(C)(C)O)C(=O)N[C@@H](CCC(=O)O)C(=O)N1)C(=O)O)C(N)=O` [Compound 2678] ({CH2CO}-[Dab]Y(Carboxymethyl)D[Phe(3-Me)][Phe(4-COOH)][Bip][Phe(4-COOH)][Orn][dL]H[Cha][Val(3-OH)]EC[Dab][γGlu][Pra]-NH2; thioether N-14), for which the IC50 under setting [1] is 12.2 nM.

For `CC(C)C[C@H]1NC(=O)[C@H](CCCN)NC(=O)[C@H](CCCNC(N)=O)NC(=O)[C@H](Cc2ccc(-c3ccccc3)cc2)NC(=O)[C@H](C(C)C)NC(=O)[C@H](Cc2c[nH]c3ccccc23)NC(=O)[C@H](CC(=O)O)NC(=O)[C@H](Cc2ccc(O)cc2)NC(=O)[C@H](CN)NC(=O)CSC[C@@H](C(=O)N[C@@H](C)C(N)=O)NC(=O)[C@H]([C@@H](C)O)NC(=O)[C@H](C(C)C)NC(=O)[C@H](CC2CCCCC2)NC(=O)[C@H](CCN)NC1=O` [Compound 1157], the IC50 under setting [1] was found to be 10.6 nM.

Turning to `Cc1cccc(C[C@@H]2NC(=O)[C@H](CC(=O)O)NC(=O)[C@H](Cc3ccc(C(=O)O)cc3)NC(=O)[C@H](Cc3ccncc3)NC(=O)CSC[C@@H](C(N)=O)NC(=O)[C@H]([C@@H](C)O)NC(=O)[C@H](C(C)C)NC(=O)[C@H](CC3CCCCC3)NC(=O)[C@H](CCN)NC(=O)[C@@H](CC(C)C)NC(=O)[C@H](CCCN)NC(=O)[C@H](CCC(=O)O)NC(=O)[C@H](Cc3ccc(-c4ccccc4)cc3)NC(=O)[C@H](C(C)C)NC2=O)c1` [Compound 1552] ({CH2CO}-[4Pal][Phe(4-COOH)]D[Phe(3-Me)]V[Bip]E[Orn][dL][Dab][Cha]VTC-NH2; thioether N-14), the IC50 under setting [1] worked out at 21.8 nM.
